Experiments:
[1] = test system: Huh7 cells
[2] = test system: Ebola virus; conditions: in vivo; cited from earlier work
[3] = in vitro; conditions: human
[4] = human, in vivo; cited from earlier work
[5] = test system: EBOV minigenome; assay type: cell-based, Ebola virus

Structure (SMILES): CCN(CC)Cc1cc(Nc2ccnc3cc(Cl)ccc23)ccc1O [Amodiaquine, amodiaquine]
- Selectivity index [1]: 37
- case mortality [2]: 50%
- CC50 [3]: 79 µM

Structure (SMILES): CCNCc1cc(Nc2ccnc3cc(Cl)ccc23)ccc1O [desethyl-amodiaquine]
- half-life [4]: 220 to 432 h

Structure (SMILES): COc1c(C)c2c(c(O)c1C/C=C(\C)CCC(=O)O)C(=O)OC2 [mycophenolic acid]
- activity of EBOV minigenome (firefly luciferase normalized to renilla) [5]: effectively blocked the signal from the minigenome

Reference: publication PMC6374029 (Antiviral Research, 2018)
